Results as given in patent US10106515B2, “1-(cyclopent-2-en-1-yl)-3-(2-hydroxy-3-(arylsulfonyl)phenyl)urea derivatives as CXCR2 inhibitors” (GLAXOSMITHKLINE INTELLECTUAL PROPERTY DEVELOPMENT LIMITED, priority 2014, dated 2018).
Counter-ions that a name gives are not always drawn.

Biological target: T1, recombinant human CXCR2 (Homo sapiens, UniProt P25025)
T1 construct: TEV protease site; Gal4-VP16 transcription factor
T1 sequence (P25025 1-360): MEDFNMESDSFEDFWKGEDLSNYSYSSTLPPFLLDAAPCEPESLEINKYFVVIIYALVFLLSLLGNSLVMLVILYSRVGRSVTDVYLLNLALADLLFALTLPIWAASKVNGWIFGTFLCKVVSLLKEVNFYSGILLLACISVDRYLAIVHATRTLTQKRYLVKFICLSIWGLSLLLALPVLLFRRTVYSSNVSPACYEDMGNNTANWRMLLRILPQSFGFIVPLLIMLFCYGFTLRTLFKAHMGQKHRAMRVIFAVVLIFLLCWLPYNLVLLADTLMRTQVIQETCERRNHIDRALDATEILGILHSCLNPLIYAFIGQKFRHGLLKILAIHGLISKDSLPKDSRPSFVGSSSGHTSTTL
Assay: CXCR2 Tango assay
Assay type: cell-based
Settings: mean pIC50 of multiple test results; stimulated with 80 nM hCXCL1; reporter gene blue/green emission ratio; read-out: pIC50 (CXCR2 Tango assay) (converted)
How it was run: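 A stable cell line carries human CXCR2 fused to a TEV site and Gal4-VP16, with protease-tagged arrestin. Cells (~10,000/well) were stimulated overnight at 37 °C with 80 nM hCXCL1 and a 10-point compound dilution. CCF4-AM beta-lactamase FRET (460/530 nm ratio) was read, normalized to hCXCL1 and DMSO, and mean pIC50 reported.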

SMILES	IC50
CC1=CCCC1NC(=O)Nc1ccc(Cl)c(S(=O)(=O)C(C)c2ccccn2)c1O (stereo not drawn) [Compound 25, 1-(4-chloro-2-hydroxy-3-((1-(pyridin-2-yl)ethyl)sulfonyl)phenyl)-3-(2-methylcyclopent-2-en-1-yl)urea, trifluoroacetic acid salt]	≤ 10 nM
CC(c1ccccn1)S(=O)(=O)c1c(Cl)ccc(NC(=O)NC2CCC=C2Cl)c1O (stereo not drawn) [Compound 26, 1-(4-chloro-2-hydroxy-3-((1-(pyridin-2-yl)ethyl)sulfonyl)phenyl)-3-(2-chlorocyclopent-2-en-1-yl)urea]	≤ 10 nM
CC1=CCCC1NC(=O)Nc1ccc(Cl)c(S(=O)(=O)C2CC3(CCN(C)CC3)C2)c1O (stereo not drawn) [Compound 140, 1-(4-chloro-2-hydroxy-3-((7-methyl-7-azaspiro[3.5]nonan-2-yl)sulfonyl)phenyl)-3-(2-methylcyclopent-2-en-1-yl)urea]	≤ 10 nM
CC1=CCC[C@H]1NC(=O)Nc1ccc(Cl)c(S(=O)(=O)C2CCC[C@H](O)C2)c1O (stereo partly drawn) [Compound 52, 1-(4-chloro-2-hydroxy-3-((trans-3-hydroxycyclohexyl)sulfonyl)phenyl)-3-((R)-2-methylcyclopent-2-en-1-yl)urea]	≤ 1 nM
CC1=CCC[C@H]1NC(=O)Nc1ccc(Cl)c(S(=O)(=O)C2CCN(CC(F)F)CC2)c1O [Compound 80, (R)-1-(4-chloro-3-((1-(2,2-difluoroethyl)piper-idin-4-yl)sulfonyl)-2-hydroxyphenyl)-3-(2-methylcyclopent-2-en-1-yl)urea trifluoroacetic acid salt]	≤ 10 nM
CC1=CCCC1NC(=O)Nc1ccc(Cl)c(S(=O)(=O)C(C)c2ncccn2)c1O (stereo not drawn) [Compound 29, 1-(4-chloro-2-hydroxy-3-((1-(pyrimidin-2-yl)ethyl)sulfonyl)phenyl)-3-(2-methylcyclopent-2-en-1-yl)urea, trifluoroacetic acid salt]	≤ 10 nM
CC1=CCC[C@H]1NC(=O)Nc1ccc(Cl)c(S(=O)(=O)C2CC[C@@H](N(C)C)C2)c1O (stereo partly drawn) [Compound 127, cis-1-(4-chloro-3-((3-(dimethylamino)cyclopentyl)sulfonyl)-2-hydroxyphenyl)-3-((R)-2-methylcyclopent-2-en-1-yl)urea]	≤ 1 nM
CC1=CCCC1NC(=O)Nc1ccc(Cl)c(S(=O)(=O)[C@H]2C[C@H](N(C)C)C2)c1O (stereo partly drawn) [Compound 133, 1-(4-chloro-3-((trans-3-(dimethylamino)cyclobutyl)sulfonyl)-2-hydroxyphenyl)-3-(2-methylcyclopent-2-en-1-yl)urea]	≤ 10 nM
CC1=CCC[C@H]1NC(=O)Nc1ccc(Cl)c(S(=O)(=O)N2CCCCC2)c1O [Compound 91, (R)-1-(4-chloro-2-hydroxy-3-(piperidin-1-ylsulfonyl)phenyl)-3-(2-methylcyclopent-2-en-1-yl)urea trifluoroacetic acid salt]	≤ 1 nM
CC1=CCC[C@H]1NC(=O)Nc1ccc(Cl)c(S(=O)(=O)C(C)(C)C(F)(F)F)c1O [Compound 58, (R)-1-(4-chloro-2-hydroxy-3-((1,1,1-trifluoro-2-methylpropan-2-yl)sulfonyl)phenyl)-3-(2-methylcyclopent-2-en-1-yl)urea]	≤ 1 nM
CC1=CCCC1NC(=O)Nc1ccc(Cl)c(S(=O)(=O)N2CCCC2)c1O (stereo not drawn) [Compound 116, 1-(4-chloro-2-hydroxy-3-(pyrrolidin-1-ylsulfonyl)phenyl)-3-(2-methylcyclopent-2-en-1-yl)urea]	≤ 10 nM
CC1=CCCC1NC(=O)Nc1ccc(Cl)c(S(=O)(=O)[C@H]2C[C@H](N3CCCC3)C2)c1O (stereo partly drawn) [Compound 96, 1-(4-chloro-2-hydroxy-3-(((1r,3r)-3-(pyrrolidin-1-yl)cyclobutyl)sul-fonyl)phenyl)-3-(2-methylcyclopent-2-en-1-yl)urea, trifluoroacetic acid salt]	≤ 10 nM
CC1(S(=O)(=O)c2c(Cl)ccc(NC(=O)N[C@@H]3CCC=C3Cl)c2O)CC(O)C1 (stereo partly drawn) [Compound 38, (R)-1-(4-chloro-2-hydroxy-3-((3-hydroxy-1-methylcyclobutyl)sulfonyl)phenyl)-3-(2-chlorocyclopent-2-en-1-yl)urea]	≤ 1 nM
CC1=CCC[C@H]1NC(=O)Nc1ccc(Cl)c(S(=O)(=O)C(C)(C)C2COC2)c1O [Compound 61, (R)-1-(4-chloro-2-hydroxy-3-((2-(oxetan-3-yl)propan-2-yl)sulfonyl)phenyl)-3-(2-methylcyclopent-2-en-1-yl)urea]	≤ 1 nM
[2H]C1(S(=O)(=O)c2c(Cl)ccc(NC(=O)N[C@@H]3CCC=C3C)c2O)CCN(C2CCC2)CC1 [Compound 81, (R)-1-(4-chloro-3-((1-cyclobutylpiperidin-4-yl)sulfonyl)-2-hydroxyphenyl)-3-(2-methylcyclopent-2-en-1-yl)urea-d1, trifluoroacetic acid salt]	≤ 1 nM
CC1(S(=O)(=O)c2c(Cl)ccc(NC(=O)N[C@@H]3CCC=C3Cl)c2O)COC1 [Compound 181, (R)-1-(4-chloro-2-hydroxy-3-((3-methyloxetan-3-yl)sulfonyl)phenyl)-3-(2-chlorocyclopent-2-en-1-yl)urea]	> 10000 nM
CO[C@H]1C[C@@H](S(=O)(=O)c2c(Cl)ccc(NC(=O)NC3CCC=C3C)c2O)C1 (stereo partly drawn) [Compound 148, 1-(4-chloro-2-hydroxy-3-((cis-3-methoxycyclobutyl)sulfonyl)phenyl)-3-(2-methylcyclopent-2-en-1-yl)urea]	≤ 10 nM
CC(C)(F)S(=O)(=O)c1c(Cl)ccc(NC(=O)NC2C=CCC2)c1O (stereo not drawn) [Compound 14, 1-(4-chloro-3-((2-fluoropropan-2-yl)sulfonyl)-2-hydroxyphenyl)-3-(cyclopent-2-en-1-yl)urea]	≤ 10 nM
